According to patent publication EP1283052A1, “Pharmaceutical composition containing caspase-8 and /or caspase-9 useful for overcoming glucocorticoid- and cancer therapy-induced apoptosis of tumours” (Deutsches Krebsforschungszentrum Stiftung des öffentlichen …, priority 2001, dated 2003):

How the values were obtained:
caspase-8 = assay: Fluorometric caspase-8 activity assay in P693 cells; type: cell-based, human; conditions: cisplatin 2 µg/ml alone, Fig. 2b
Description: (§1) • (a) Left: P5 an CEM cells were treated with cisplatin (1-5 µg/ml) in the absence or presence of DEX (1 µM) as indicated. Proteins were extracted and expression of CD95-L, TRAIL or TNF-α was detected by Western blot analysis. The size of the proteins in kDa is indicated. Right: HeLa and P5 were treated with CD95 agonistic antibody αAPO-1 (CD95, 1 µg/ml), recombinant TRAIL protein (TRAIL, 100 ng/ml) or recombinant TNF-α protein (TNF-α, 100 ng/ml) in the absence (white bars) or presence (black bars) of DEX (1 µM). 24 h later the percentage of apoptosis was determined by annexin-staining and FACS-analysis in untreated (CO) and stimulated cells at the time points indicated. • (b) P693 and CEM cells were treated with cisplatin (2 µg/ml) in the absence or presence of DEX as indicated. 24 and 48 h following treatment cells were lysed and caspase-8 activity was determined by a fluorescent caspase-8 assay and spectroscopy. • (c) P5 cells were stable transfected with empty vector (pcDNA3), or pcDNA3 vector encoding dominant negative FADD protein (FADD-DN). Proteins were extracted from both cell lines and expression of wildtype (WT) and FADD-DN (DN) was detected by Western blot. Left: Stable transfected P5 cells were treated with αAPO-1 (1 µg/ml) and 24 h later apoptosis was determined by staining with annexin/propidium iodide and flow-cytometry. […]

P5 cells = assay: Specific apoptosis in P5 cells stably transfected with pcDNA3 or FADD-DN; type: cell-based, human; conditions: 48 h, cisplatin 2 µg/ml; Fig. 2c right
Description: as §1

N.N.[Cl][Pt][Cl] [cisplatin]
activity of caspase-8 (caspase-8): induced 48 h following treatment
cisplatin-induced apoptosis (P5 cells): about 80%
